As a reminder, the melting point is the temperature, or range, at which the solid turns liquid.

Consider six molecules from patent US20070004735A1, “Method for inhibiting the replication of herpes viruses” (priority 2003, published 2007).

Each structure is given as a SMILES string.

Data set [1] has as its system Human cytomegalovirus (HCMV). In words: Anti-HCMV cytopathogenicity test. It counts as cell-based. The following applies: for IC50: Human betaherpesvirus 5, 144 h, NHDF cells, 6 days, cytopathogenic effect, read-out: IC50, antiviral activity in vitro; for SI (selectivity index): antiviral activity in vitro. Here is the method:
Human cytomegalovirus (HCMV), DavisSmith (ATCC VR807) or AD169 (ATCC VR538) strain, is grown in vitro on human embryonic prepuce fibroblasts (NHDF cells). After the NHDF cells have been infected with a multiplicity of infection (M.O.I.) of 0.01, the virus-infected cells are harvested 5-10 days later and stored in the presence of minimal essential medium (MEM), 10% fetal calf serum (FCS) with 10% DMSO at −80° C. A cell-free stock is produced by removing only the cell culture supernatant and immediately freezing at −80° C. After serial ten-fold dilutions of the virus-infected cells or of the cell culture supernatant of the virus-infected cells (cell-free virus), the titer is determined on 24-well plates of confluent NHDF cells after vital staining with neutral red.
(§1) The test compounds are employed as 50 millimolar (mM) solutions in dimethyl sulfoxide (DMSO). Ganciclovir®, Foscarnet® and Cidofovir® are used as reference compounds. After addition of in each case 2 μl of the 50, 5, 0.5 and 0.05 mM DMSO stock solutions to 98 μl portions of cell culture medium in row 2 A-H for duplicate determinations, 1:2 dilutions are carried out with 50 μl portions of medium up to row 11 of the 96-well plate. The wells in rows 1 and 12 each contain 50 μl of medium. 150 μl of a suspension of 1×10^4 cells (human prepuce fibroblasts [NHDF]) are then pipetted into each of the wells (row 1=cell control) and, in rows 2-12, a mixture of HCMV-infected and uninfected NHDF cells (M.O.I.=0.001-0.002), i.e. 1-2 infected cells per 1000 uninfected cells. Row 12 (without substance) serves as virus control. The final test concentrations are 250-0.0005 μM. The plates are incubated at 37° C./5% CO2 for 6 days, i.e. until all the cells are infected in the virus controls (100% cytopathogenic effect [CPE]). The wells are then fixed and stained by adding a mixture of formalin and Giemsa's dye (30 minutes), washed with double-distilled water and dried in a drying oven at 50° C. The plates are then assessed visually using an overhead microscope (plaque multiplier from Technomara).
Background: Cytopathic effects are the visible damage that an infection or toxin causes in cultured cells.

In another data set the test system is wild-type HCMV AD169. In words: Susceptibility (IC50) of HCMV AD169 wild-type. It is filed as cell-based, Human cytomegalovirus. The following applies: Human betaherpesvirus 5, NHDF cells, read-out: IC 50, Wild-type. Here is the method: as §1
(§2) For this purpose, NHDF cells are seeded in tissue culture vessels. 5×10^3 cells per well are seeded in 96-well plates and infected with cell-free HCMV AD169 with an moi of 0.03. The infections are cultivated under substance pressure which corresponds to 10 times the IC50 of the substance. Preferably, 30-100 96-well plates inoculated as described are made up. […] Finally, viral stocks are produced as described above and frozen. Serial ten-fold dilution of the virus-infected cells or of the cell culture supernatant of the virus-infected cells is followed by determination of the titer on 24-well plates of confluent NHDF cells after vital staining with neutral red. Finally, the susceptibility to various substances (IC50 determination) is determined as described above.
(§3) The HCMVAD169 mutants selected as described above are grown in vitro on human embryonic prepuce fibroblasts (NHDF cells) under substance pressure (10×IC50 HCMVAD169). After infection of the NHDF cells with a multiplicity of infection (M.O.I) of 0.01, the virus-infected cells are harvested 5-10 days later, and the total DNA is isolated from these cells with the aid of established standard methods (e.g. phenol extraction and ethanol precipitation). Qiagen Sequencing Services (Qiagen, Hilden) determined, after amplification of the viral UL86 gene by PCR, the DNA sequence, which was then transcribed into protein sequence. Compared with the initial strain HCMV AD169, the differences shown in table 2 were detectable in the protein sequence of the major capsid protein (UL86) in the resistant viruses. The IC50 values [μM] of various substances on these mutants compared with the initial strain are likewise indicated. (n.d.=not measured). […] Depending on the nature of the substance, certain mutations lead to various extents of resistance.

The test system of data set [2] is HCMV AD169 clone with mutation in UL86 R435C. In words: Susceptibility (IC50) of resistant HCMV AD169 clone R435C. It counts as cell-based, Human cytomegalovirus. The following applies: Human betaherpesvirus 5, read-out: IC 50, R435C. Here is the method:
as §1, §2, §3

For data set [3], the system named is HCMV AD169 clone with mutation in UL86 D441N. In words: Susceptibility (IC50) of resistant HCMV AD169 clone D441N. It is filed as cell-based, Human cytomegalovirus. The following applies: Human betaherpesvirus 5, read-out: IC 50, D441N. Here is the method:
as §1, §2, §3

Data set [4] deals with HCMV AD169 clone with mutation in UL86 D563N. In words: Susceptibility (IC50) of resistant HCMV AD169 clone D563N. It counts as cell-based, Human cytomegalovirus. Particulars: Human betaherpesvirus 5, read-out: IC 50, D563N. The procedure:
as §1, §2, §3

In data set [5] the test system is HCMV AD169 clone with mutation in UL86 P586T. In words: Susceptibility (IC50) of resistant HCMV AD169 clone P586T. Particulars: Human betaherpesvirus 5, read-out: IC 50, P586T. It is filed as cell-based, Human cytomegalovirus. The procedure: as §1, §2, §3
Data set [6] relates to HCMV AD169 clone with mutation in UL86 V601M. In words: Susceptibility (IC50) of resistant HCMV AD169 clone V601M. It is filed as cell-based, Human cytomegalovirus. Particulars: Human betaherpesvirus 5, read-out: IC 50, V601M. The procedure: as §1, §2, §3
The subject of data set [7] is HCMV AD169 clone with mutation in UL86 R682H. In words: Susceptibility (IC50) of resistant HCMV AD169 clone R682H. It is filed as cell-based, Human cytomegalovirus. The following applies: Human betaherpesvirus 5, read-out: IC 50, R682H. Here is the method: as §1, §2, §3
The test system of data set [8] is HCMV AD169 clone with mutation in UL86 A689T. In words: Susceptibility (IC50) of resistant HCMV AD169 clone A689T. It is filed as cell-based, Human cytomegalovirus. The following applies: Human betaherpesvirus 5, read-out: IC 50, A689T. Here is the method:
as §1, §2, §3

Data set [9] concerns HCMV AD169 clone with mutation in UL86 P1189T. In words: Susceptibility (IC50) of resistant HCMV AD169 clone P1189T. It counts as cell-based, Human cytomegalovirus. The following applies: Human betaherpesvirus 5, read-out: IC 50, P1189T. Here is the method: as §1, §2, §3
Data set [10] deals with HCMV AD169 clone with mutation in UL86 Q1223R. In words: Susceptibility (IC50) of resistant HCMV AD169 clone Q1223R. It is filed as cell-based, Human cytomegalovirus. Particulars: Human betaherpesvirus 5, read-out: IC 50, Q1223R. The procedure:
as §1, §2, §3

Data set [11] relates to HCMV AD169 clone with mutation in UL86 A1226T. In words: Susceptibility (IC50) of resistant HCMV AD169 clone A1226T. It is filed as cell-based, Human cytomegalovirus. Particulars: Human betaherpesvirus 5, read-out: IC 50, A1226T. The procedure:
as §1, §2, §3

Data set [12] has as its system HCMV AD169 clone with mutation in UL86 E1320Q. In words: Susceptibility (IC50) of resistant HCMV AD169 clone E1320Q. It is filed as cell-based, Human cytomegalovirus. The following applies: Human betaherpesvirus 5, read-out: IC 50, E1320Q. The procedure:
as §1, §2, §3

Data set [13] deals with HCMV AD169 clone with mutation in UL86 K1338N. In words: Susceptibility (IC50) of resistant HCMV AD169 clone K1338N. It counts as cell-based, Human cytomegalovirus. Particulars: Human betaherpesvirus 5, read-out: IC 50, K1338N. Here is the method: as §1, §2, §3

As to `CC(=O)Nc1ccc(NC(=O)Nc2ccc(F)c(Cl)c2)cc1` [Example 3, N-[4-({[(3-Chloro-4-fluorophenyl)amino]carbonyl}amino)phenyl]acetamide], the IC50 in data set [1] is 500 nM; in the data set on wild-type HCMV AD169, 500 nM; in data set [2], > 20000 nM; in [3], > 20000 nM; in data set [4], > 20000 nM; in data set [5], > 20000 nM. Also, the IC50 in [6], in data set [7], in data set [8], in [9], in data set [10] and in data set [11] was > 20000 nM in each case. For the same molecule, the IC50 in [12] and in data set [13] was > 20000 nM in each case. Also, in data set [1], the “SI (selectivity index)” value stood at 40.

With `Nc1nc(O)c2ncn(COC(CO)CO)c2n1` [Ganciclovir, reference compound], the IC50 (in the data set on wild-type HCMV AD169; in data set [2]; in [3]; in [4]; in data set [5]; in data set [6]) was 1000 nM each time. Moreover, the IC50 in [7], in data set [8], in data set [9], in data set [10], in data set [11] and in [12] was 1000 nM each time. In [13], the IC50 was 1000 nM.

As to `Cc1cc(Cl)ccc1NC(=O)Nc1cccc(C2=NNC(=O)C2(C)C)c1` [Example 8, N-(4-Chloro-2-methylphenyl)-N′-[3-(4,4-dimethyl-5-oxo-4,5-dihydro-1H-pyrazol-3-yl)phenyl]urea], the melting point was 226.8 °C. Besides, in data set [1], the IC50 amounted to 600 nM and the “SI (selectivity index)” value is 30. Further, the IC50 with wild-type HCMV AD169 was 600 nM. Moreover, the IC50 in [2] worked out at 1300 nM. Further, in [4], the IC50 is > 21000 nM. The IC50 in [5] was > 21000 nM. The IC50 in data set [6] was > 21000 nM. Further, in data set [8], the IC50 was > 21000 nM. For the same molecule, in [10], the IC50 was > 21000 nM. Moreover, in [12], the IC50 was > 21000 nM. Also, the IC50 in data set [13] is > 21000 nM.

Turning to `CC(C)n1c(-c2cccc(NC(=O)Nc3ccc(F)c(Cl)c3)c2)n[nH]c1=O` [Example 6, 1-(3-Chloro-4-fluorophenyl)-3-[3-(4-isopropyl-5-oxo-4,5-dihydro-1H-[1,2,4]triazol-3-yl)phenyl]urea], in data set [1], the IC50 was determined as 400 nM and the “SI (selectivity index)” value amounted to 150.

For the molecule `O=C(Nc1cccc(-c2n[nH]c(=O)n2C2CCCCC2)c1)Nc1ccc(F)c(Cl)c1` [Example 7, 1-(3-Chloro-4-fluorophenyl)-3-[3-(4-cyclohexyl-5-oxo-4,5-dihydro-1H-[1,2,4]triazol-3-yl)phenyl]urea], the IC50 in data set [1] came to 1500 nM; in the data set with wild-type HCMV AD169, 1500 nM; in [2], 3000 nM; in [4], 15000 nM; in [5], 7600 nM; in data set [6], 12000 nM. Besides, the IC50 in data set [8] came out at 4500 nM; in [10] it was 12000 nM; in [12] it was 24000 nM; in [13], 15000 nM. Besides, the “SI (selectivity index)” value in [1] came out at 30.

Regarding `CCCCS(=O)(=O)Nc1cccc(NC(=O)Nc2ccc(F)c(Cl)c2)c1` [Example 5, N-[3-({[(3-Chloro-4-fluorophenyl)amino]carbonyl}amino)phenyl]-1-butanesulfonamide], the IC50 in [1] came out at 140 nM; in the data set on wild-type HCMV AD169, 140 nM; in [2], 6000 nM; in data set [4] it was 1400 nM; in data set [5] it was 800 nM; in data set [6] it was 1500 nM. Further, the IC50 in data set [8] is 400 nM; in [10], 1400 nM; in [12], 9000 nM; in data set [13] it was > 9000 nM. For the same molecule, in data set [1], the “SI (selectivity index)” value turned out to be 70.
